Assay results published in patent US20180021360A1, “Combination Therapy Regimen For Treatment Of Selected HCV Genotypes” (JANSSEN PHARMACEUTICALS, INC., priority 2016, published 2018).

Tests used:
[1] = Phase-1 drug-drug interaction study of Odalasvir, Simeprevir and Compound (III) in healthy volunteers; type: in vivo, human
From the text: The following daily doses were employed:

[2] = Phase 2a open-label combination study, pharmacokinetics; type: in vivo, human
Experimental: A randomized, Phase 2a, open-label study was carried out to evaluate the safety, pharmacokinetics and efficacy of the combination of Compound (III), Odalasvir and Simeprevir in Genotype 1 treatment-naïve subjects with chronic hepatitis C. Other treatment-naïve subjects included Genotype 2, 3, 4, 5 and 6.
The aim of the study was to determine the efficacy, pharmacokinetics (PK), and safety of Compound (II)+Odalasvir±SMV in HCV-infected subjects.
This was an open-label study evaluating various dosing regimens of Compound (III)+Odalasvir±SMV for 6-8 weeks in treatment-nave HCV-infected subjects with varying clinical characteristics (e.g., GT 1 or 3, presence/absence of compensated Child Pugh A cirrhosis). Efficacy, PK and safety evaluations were conducted during and through 24 weeks post dosing. Up to 15 cohorts were enrolled; data was generated from cohorts that have completed dosing.

HCV genotype 3 = test: activity against genotype 3 in vitro; parameters: species or system hepatitis C virus
P-gp = P-gp (Homo sapiens, UniProt P08183); conditions: cited from earlier work
BCRP = molecular target: T1, BCRP (Homo sapiens, UniProt Q9UNQ0); conditions: cited from earlier work
T1 sequence (Q9UNQ0 1-655): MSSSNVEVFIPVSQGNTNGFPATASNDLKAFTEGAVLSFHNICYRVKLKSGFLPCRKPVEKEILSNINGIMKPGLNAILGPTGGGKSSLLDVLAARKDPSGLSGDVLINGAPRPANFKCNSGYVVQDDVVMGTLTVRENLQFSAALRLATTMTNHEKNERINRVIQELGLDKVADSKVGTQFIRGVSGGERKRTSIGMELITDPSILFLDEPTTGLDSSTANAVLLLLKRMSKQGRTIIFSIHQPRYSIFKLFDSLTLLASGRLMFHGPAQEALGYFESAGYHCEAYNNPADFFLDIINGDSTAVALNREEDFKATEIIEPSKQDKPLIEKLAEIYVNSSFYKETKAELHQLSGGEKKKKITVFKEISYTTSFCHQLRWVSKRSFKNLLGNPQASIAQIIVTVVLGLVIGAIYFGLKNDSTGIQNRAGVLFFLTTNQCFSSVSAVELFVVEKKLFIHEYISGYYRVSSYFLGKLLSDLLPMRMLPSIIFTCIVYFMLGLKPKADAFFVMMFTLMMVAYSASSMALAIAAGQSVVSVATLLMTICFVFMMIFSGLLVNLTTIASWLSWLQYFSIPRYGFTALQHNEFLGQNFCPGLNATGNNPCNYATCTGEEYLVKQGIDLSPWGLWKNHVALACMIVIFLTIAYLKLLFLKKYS

OATP1B1 = molecular target: T2, OATP1B1 (Homo sapiens, UniProt Q9Y6L6); conditions: cited from earlier work
T2 sequence (Q9Y6L6 1-691): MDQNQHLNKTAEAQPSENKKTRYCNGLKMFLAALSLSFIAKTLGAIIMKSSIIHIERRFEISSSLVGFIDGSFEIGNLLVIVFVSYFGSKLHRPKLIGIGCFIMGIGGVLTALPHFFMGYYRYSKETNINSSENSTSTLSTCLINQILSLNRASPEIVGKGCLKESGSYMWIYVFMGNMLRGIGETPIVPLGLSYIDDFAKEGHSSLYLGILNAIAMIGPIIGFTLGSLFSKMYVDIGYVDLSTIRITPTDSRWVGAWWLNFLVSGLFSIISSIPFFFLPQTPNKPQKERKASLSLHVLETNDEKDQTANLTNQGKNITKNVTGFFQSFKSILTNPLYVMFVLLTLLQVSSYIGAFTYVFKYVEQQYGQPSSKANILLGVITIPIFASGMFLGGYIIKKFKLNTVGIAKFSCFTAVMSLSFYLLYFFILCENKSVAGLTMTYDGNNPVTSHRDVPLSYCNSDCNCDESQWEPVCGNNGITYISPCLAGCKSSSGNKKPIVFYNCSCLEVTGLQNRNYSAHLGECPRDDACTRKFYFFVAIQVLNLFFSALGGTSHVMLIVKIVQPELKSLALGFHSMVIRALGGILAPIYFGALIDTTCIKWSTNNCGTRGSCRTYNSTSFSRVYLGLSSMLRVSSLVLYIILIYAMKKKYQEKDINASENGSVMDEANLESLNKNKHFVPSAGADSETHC

OATP1B3 = molecular target: T3, OATP1B3 (Homo sapiens, UniProt Q9NPD5); conditions: cited from earlier work
T3 sequence (Q9NPD5 1-702): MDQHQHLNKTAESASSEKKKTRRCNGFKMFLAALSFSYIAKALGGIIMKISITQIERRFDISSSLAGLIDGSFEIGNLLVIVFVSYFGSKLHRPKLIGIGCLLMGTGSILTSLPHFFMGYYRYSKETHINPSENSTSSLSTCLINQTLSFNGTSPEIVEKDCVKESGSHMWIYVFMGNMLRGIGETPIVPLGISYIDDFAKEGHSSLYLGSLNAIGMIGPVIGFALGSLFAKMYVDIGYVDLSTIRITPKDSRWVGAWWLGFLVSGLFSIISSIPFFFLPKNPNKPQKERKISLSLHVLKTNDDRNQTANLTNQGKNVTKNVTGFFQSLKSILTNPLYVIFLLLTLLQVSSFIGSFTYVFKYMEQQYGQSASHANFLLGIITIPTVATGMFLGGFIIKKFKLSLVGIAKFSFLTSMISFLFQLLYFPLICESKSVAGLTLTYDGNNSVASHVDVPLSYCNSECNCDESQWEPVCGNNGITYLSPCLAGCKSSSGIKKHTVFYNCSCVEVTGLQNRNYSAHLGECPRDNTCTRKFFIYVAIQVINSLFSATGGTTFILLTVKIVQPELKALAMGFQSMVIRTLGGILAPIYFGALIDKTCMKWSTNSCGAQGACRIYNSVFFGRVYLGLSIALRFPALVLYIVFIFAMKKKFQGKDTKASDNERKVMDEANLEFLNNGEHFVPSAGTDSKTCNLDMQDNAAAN

CYP = CYP inhibition potential; conditions: any CYP

Sequence of P-gp (P08183 whole entry): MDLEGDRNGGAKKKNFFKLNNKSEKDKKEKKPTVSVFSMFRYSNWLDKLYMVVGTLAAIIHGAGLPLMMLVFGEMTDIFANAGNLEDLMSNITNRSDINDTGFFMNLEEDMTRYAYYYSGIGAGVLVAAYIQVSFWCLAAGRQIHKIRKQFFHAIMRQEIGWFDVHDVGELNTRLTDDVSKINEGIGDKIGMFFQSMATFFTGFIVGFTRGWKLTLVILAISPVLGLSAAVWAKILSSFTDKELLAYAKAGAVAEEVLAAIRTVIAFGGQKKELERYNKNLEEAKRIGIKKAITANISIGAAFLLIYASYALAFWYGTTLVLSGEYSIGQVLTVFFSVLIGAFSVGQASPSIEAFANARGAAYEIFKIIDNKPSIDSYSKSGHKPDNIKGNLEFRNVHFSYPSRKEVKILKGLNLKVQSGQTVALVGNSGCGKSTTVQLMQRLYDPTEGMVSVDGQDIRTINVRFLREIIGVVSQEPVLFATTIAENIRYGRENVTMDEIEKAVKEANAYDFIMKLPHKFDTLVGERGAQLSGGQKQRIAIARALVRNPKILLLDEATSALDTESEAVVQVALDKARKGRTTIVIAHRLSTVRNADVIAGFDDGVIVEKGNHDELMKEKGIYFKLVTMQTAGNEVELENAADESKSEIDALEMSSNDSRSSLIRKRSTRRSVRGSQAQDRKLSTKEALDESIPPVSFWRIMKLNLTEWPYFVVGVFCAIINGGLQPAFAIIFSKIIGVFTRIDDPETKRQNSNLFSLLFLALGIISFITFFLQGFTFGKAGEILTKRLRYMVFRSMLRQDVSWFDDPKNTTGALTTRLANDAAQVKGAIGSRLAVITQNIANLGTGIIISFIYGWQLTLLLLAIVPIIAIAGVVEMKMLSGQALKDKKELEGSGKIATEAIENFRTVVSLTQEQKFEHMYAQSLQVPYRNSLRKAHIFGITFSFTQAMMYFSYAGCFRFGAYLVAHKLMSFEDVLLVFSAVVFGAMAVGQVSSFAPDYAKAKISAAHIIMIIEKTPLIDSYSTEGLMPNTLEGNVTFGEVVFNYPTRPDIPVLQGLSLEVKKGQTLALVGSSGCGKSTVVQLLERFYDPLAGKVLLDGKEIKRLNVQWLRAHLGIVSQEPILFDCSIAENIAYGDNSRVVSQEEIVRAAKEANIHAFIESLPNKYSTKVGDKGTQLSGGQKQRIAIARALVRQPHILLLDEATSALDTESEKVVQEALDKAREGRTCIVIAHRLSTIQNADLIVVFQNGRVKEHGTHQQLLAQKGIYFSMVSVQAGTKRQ

## COC(=O)N[C@H](C(=O)N1[C@H](c2nc3cc(-c4cc5ccc4CCc4ccc(c(-c6ccc7[nH]c([C@@H]8C[C@@H]9CCCC[C@@H]9N8C(=O)[C@@H](NC(=O)OC)C(C)C)nc7c6)c4)CC5)ccc3[nH]2)C[C@@H]2CCCC[C@@H]21)C(C)C [Odalasvir, methyl [(2,)-1-[(2S,3aS,7aS)-2-[6-[11-[2-[(2S,3aS,7aS)-1-[(2S)-2-[(methoxycarbonyl)amino]-3-methylbutanoyl]octahydro-1H-indol-2-yl]-1H-benzimidazol-6-yl]tricyclo[8.2.2.2^4,7]hexadeca-1(12),4,6,10,13,15-hexaen-5-yl]-1H-benzimidazol-2-yl]octahydro-1H-indol-1-yl]-3-methyl-1-oxobutan-2-yl]carbamate]
[1]; DDI study results
  effect of Compound (III) on SMV or ODV: no apparent effect
  increase of exposure caused by SMV: 1.6 ×
  increase of exposure, effect of the three Compounds: 1.5 ×
[1]; human in vivo study (Example 1)
  increase of exposure on co-administration of Compounds I, II and III: 1.5 times
[1]; human, in vivo
  effect of Compound (III) on bioavailability of SMV or ODV: does not alter
  increase of exposure of ODV by SMV: 1.6 fold
[2]; Compound (III) 400 mg, ODV 50 mg QD, SMV 100 mg QD
  observed exposures in Cohort 1 / group (i): higher than anticipated
[2]; in vivo
  decrease of ODV exposure on reducing ODV dosing from QD to QOD: proportionally
HCV genotype 3
  activity against genotype 3 in vitro: effective
P-gp
  in vitro inhibition of P-gp: moderate inhibition
BCRP
  in vitro inhibition of BCRP: no inhibition
OATP1B1
  in vitro inhibition of OATP1B1: no inhibition
OATP1B3
  in vitro inhibition of OATP1B3: no inhibition
CYP
  CYP inhibition potential: does not inhibit
